Consider 27 molecules from US11702404B2, “GLP-1R modulating compounds” (priority 2019, dated 2023).

One data set concerns the target GLP-1R (Homo sapiens, UniProt P43220). Kind of data set: GLP-1R activation: cAMP increase in CHO cells stably expressing GLP-1R. The class given is cell-based. The note with it: cAMP increase, CHO cells stably expressing GLP-1R, 10 point dose response, 30 minutes incubation; read-out: EC50.
The nature of data set [1]: Microsomal stability, human liver microsomes (predicted hepatic clearance). The note with it: predicted from in vitro microsomal stability data.

Structures are written as SMILES.

Chain of GLP-1R (P43220 24-463): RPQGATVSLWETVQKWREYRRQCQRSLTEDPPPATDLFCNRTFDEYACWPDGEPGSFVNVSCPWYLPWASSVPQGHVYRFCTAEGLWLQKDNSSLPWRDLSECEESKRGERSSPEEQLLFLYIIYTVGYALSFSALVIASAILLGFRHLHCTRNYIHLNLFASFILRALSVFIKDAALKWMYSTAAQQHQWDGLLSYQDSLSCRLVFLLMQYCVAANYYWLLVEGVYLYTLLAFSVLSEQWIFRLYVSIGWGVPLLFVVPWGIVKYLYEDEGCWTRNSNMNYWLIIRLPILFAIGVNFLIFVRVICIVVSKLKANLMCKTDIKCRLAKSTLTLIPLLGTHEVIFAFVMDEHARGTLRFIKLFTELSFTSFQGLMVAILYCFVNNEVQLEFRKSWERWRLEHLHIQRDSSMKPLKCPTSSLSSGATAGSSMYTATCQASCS

In general, EC50 refers to the midpoint of the concentration-response curve. As for `N#Cc1ccc(COc2cccc(-c3ccc(Cc4nc5c(F)cc(C(=O)O)cc5n4CC4(CF)CC4)cc3F)n2)c(F)c1` [Example 276, 2-(4-(6-((4-cyano-2-fluorobenzyl)oxy)pyridin-2-yl)-3-fluorobenzyl)-4-fluoro-1-((1-(fluoromethyl)cyclopropyl)methyl)-1H-benzo[d]imidazole-6-carboxylic acid], on GLP-1R, the EC50 is 0.23 nM. Moreover, in data set [1], the “Predicted Hepatic Clearance (Pred. Cl.)” value was 6.42 mL/min/kg.

In the case of `COCCn1c(Cc2cc(F)c(-c3cccc(OCc4ccc(C#N)cc4F)n3)cc2F)nc2ccc(C(=O)O)cc21` [Example 426, 2-(4-(6-((4-cyano-2-fluorobenzyl)oxy)pyridin-2-yl)-2,5-difluorobenzyl)-1-(2-methoxyethyl)-1H-benzo[d]imidazole-6-carboxylic acid], the EC50 at GLP-1R was found to be 2.34 nM. For the same molecule, in data set [1], the “Predicted Hepatic Clearance (Pred. Cl.)” value was 4.6 mL/min/kg.

Consider `O=C(O)c1ccc2nc(Cc3cc(F)c(-c4nc(OCc5ccc(C(F)F)cc5F)ncc4F)cc3F)n(C[C@@H]3CCO3)c2c1` [Example 877], for which the EC50 on GLP-1R came to 0.51 nM. In addition, in data set [1], the “Predicted Hepatic Clearance (Pred. Cl.)” value was 7.17 mL/min/kg.

As to `N#Cc1ccc(COc2cccc(-c3ccc(Cc4nc5ccc(C(=O)O)cc5n4C[C@H]4CCS4(=O)=O)cc3)n2)c(F)c1` (racemic) [Example 475, 2-(4-(6-((4-cyano-2-fluorobenzyl)oxy)pyridin-2-yl)benzyl)-1-((1,1-dioxidothietan-2-yl)methyl)-1H-benzo[d]imidazole-6-carboxylic acid], the EC50 at GLP-1R came out at 325 nM. Also, the “Predicted Hepatic Clearance (Pred. Cl.)” value in data set [1] is 2 mL/min/kg.

In the case of `COCCn1c(Cc2cc(F)c(-c3ccc(F)c(OCc4ccc(C#N)cc4F)n3)cc2F)nc2c(F)cc(C(=O)O)cc21` [Example 764], on GLP-1R, the EC50 came out at 0.76 nM. In addition, the “Predicted Hepatic Clearance (Pred. Cl.)” value in data set [1] is 3.17 mL/min/kg.

Consider `N#Cc1ccc(COc2cccc(-c3ccc(Cc4nc5ccc(C(=O)O)cc5n4[C@@H]4CCOC4)c(F)c3)n2)c(F)c1` [Example 225, (R)-2-(4-(6-((4-cyano-2-fluorobenzyl)oxy)pyridin-2-yl)-2-fluorobenzyl)-1-(tetrahydrofuran-3-yl)-1H-benzo[d]imidazole-6-carboxylic acid], for which, at GLP-1R, the EC50 is 13.1 nM. The “Predicted Hepatic Clearance (Pred. Cl.)” value in data set [1] is 3.5 mL/min/kg.

In the case of `N#CCC1(Cn2c(Cc3ccc(-c4ccnc(OCc5ccc(C#N)cc5F)n4)cc3F)nc3ccc(C(=O)O)cc32)CC1` [Example 353, 2-(4-(2-((4-cyano-2-fluorobenzyl)oxy)pyrimidin-4-yl)-2-fluorobenzyl)-1-((1-(cyanomethyl)cyclopropyl)methyl)-1H-benzo[d]imidazole-6-carboxylic acid], at GLP-1R, the half-maximal effective concentration (EC50) is 1.67 nM. Also, in data set [1], the “Predicted Hepatic Clearance (Pred. Cl.)” value is less than 1.83 mL/min/kg.

Turning to `COCCn1c(Cc2ccc(-c3cccc(OCc4ccc(Cl)cc4OCC(F)(F)F)n3)cc2F)nc2ccc(C(=O)O)cc21` [Example 267, 2-(4-(6-((4-chloro-2-(2,2,2-trifluoroethoxy)benzyl)oxy)pyridin-2-yl)-2-fluorobenzyl)-1-(2-methoxyethyl)-1H-benzo[d]imidazole-6-carboxylic acid], on GLP-1R, the EC50 was 172 nM. For the same molecule, in data set [1], the “Predicted Hepatic Clearance (Pred. Cl.)” value was 4.58 mL/min/kg.

Regarding `N#Cc1cc(F)c(COc2cccc(-c3ccc(Cc4nc5c(F)cc(C(=O)O)cc5n4C[C@@H]4CCO4)cc3F)n2)cc1F` [Example 776], the EC50 at GLP-1R is 26.9 nM. The “Predicted Hepatic Clearance (Pred. Cl.)” value in data set [1] is 3.17 mL/min/kg.

As for `CC(C)(Cn1c(Cc2ccc(-c3cccc(OCc4ccc(C#N)cc4F)n3)c(F)c2)nc2ccc(C(=O)O)cc21)C(F)F` [Example 295, 2-(4-(6-((4-cyano-2-fluorobenzyl)oxy)pyridin-2-yl)-3-fluorobenzyl)-1-(3,3-difluoro-2,2-dimethylpropyl)-1H-benzo[d]imidazole-6-carboxylic acid], on GLP-1R, the EC50 was found to be 2.12 nM. In data set [1], the “Predicted Hepatic Clearance (Pred. Cl.)” value was 8.3 mL/min/kg.

As to `N#Cc1ccc(COc2cccc(-c3cc(F)c(Cc4nc5ccc(C(=O)O)cc5n4CCOc4ccccc4)cc3F)n2)c(F)c1` [Example 830], the 50% effective concentration (EC50) on GLP-1R was 448 nM. Besides, in data set [1], the “Predicted Hepatic Clearance (Pred. Cl.)” value was 2.5 mL/min/kg.

Take `COCCn1c(Cc2ccc(-c3cccc(OCc4cccc(OC(F)F)c4OC)n3)cc2F)nc2ccc(C(=O)O)cc21` [Example 140, 2-(4-(6-((3-(difluoromethoxy)-2-methoxybenzyl)oxy)pyridin-2-yl)-2-fluorobenzyl)-1-(2-methoxyethyl)-1H-benzo[d]imidazole-6-carboxylic acid]: the EC50 on GLP-1R came to 197 nM. Besides, the “Predicted Hepatic Clearance (Pred. Cl.)” value in data set [1] is 9.33 mL/min/kg.

For `O=C(O)c1ccc2nc(Cc3cc(F)c(-c4cccc(OCc5ccc(Cl)cc5F)n4)cc3F)n(C[C@@H]3CCO3)c2c1` [Example 663], on GLP-1R, the 50% effective concentration (EC50) worked out at 0.51 nM. Also, in data set [1], the “Predicted Hepatic Clearance (Pred. Cl.)” value is 1.83 mL/min/kg.

As for `COCCn1c(Cc2ccc(-c3cccc(OCc4cccc5c4nnn5C)n3)cc2F)nc2ccc(C(=O)O)cc21` [Example 147, 2-(2-fluoro-4-(6-((1-methyl-1H-benzo[d][1,2,3]triazol-4-yl)methoxy)pyridin-2-yl)benzyl)-1-(2-methoxyethyl)-1H-benzo[d]imidazole-6-carboxylic acid], the half-maximal effective concentration (EC50) on GLP-1R amounted to 760 nM. Besides, the “Predicted Hepatic Clearance (Pred. Cl.)” value in data set [1] was 12 mL/min/kg.

Consider `COCCn1c(C2OCCc3cc(-c4cccc(OCc5ccc(C#N)cc5F)n4)ccc32)nc2ccc(C(=O)O)cc21` (stereo not drawn) [Example 37, 2-(6-(6-((4-cyano-2-fluorobenzyl)oxy)pyridin-2-yl)isochroman-1-yl)-1-(2-methoxyethyl)-1H-benzo[d]imidazole-carboxylic acid], for which the EC50 at GLP-1R amounted to 927 nM. For the same molecule, the “Predicted Hepatic Clearance (Pred. Cl.)” value in data set [1] is 8.67 mL/min/kg.

For the molecule `COc1cc(Cl)ccc1COc1nccc(-c2ccc(Cc3nc4ccc(C(=O)O)cc4n3CC3(CC#N)CC3)cc2F)n1` [Example 93, 2-(4-(2-((4-chloro-2-methoxybenzyl)oxy)pyrimidin-4-yl)-3-fluorobenzyl)-1-((1-(cyanomethyl)cyclopropyl)methyl)-1H-benzo[d]imidazole-6-carboxylic acid], the concentration giving a half-maximal response (EC50) at GLP-1R was 0.28 nM. In addition, in data set [1], the “Predicted Hepatic Clearance (Pred. Cl.)” value is 14.5 mL/min/kg.

`COCCn1c(Cc2ccc(-c3nc(OCc4ccc(C#N)cc4F)ns3)cc2F)nc2ccc(C(=O)O)cc21` [Example 62, 2-(4-(3-((4-cyano-2-fluorobenzyl)oxy)-1,2,4-thiadiazol-5-yl)-2-fluorobenzyl)-1-(2-methoxyethyl)-1H-benzo[d]imidazole-6-carboxylic acid]: at GLP-1R, the EC50 came out at 1430 nM. Moreover, the “Predicted Hepatic Clearance (Pred. Cl.)” value in data set [1] was 6.7 mL/min/kg.

As for `O=C(O)c1ccc2nc(Cc3cc(F)c(-c4ccnc(OCc5ccc(Cl)cc5F)n4)cc3F)n(CC3(CF)CC3)c2n1` [Example 120, 2-(4-(2-((4-chloro-2-fluorobenzyl)oxy)pyrimidin-4-yl)-2,5-difluorobenzyl)-3-((1-(fluoromethyl)cyclopropyl)methyl)-3H-imidazo[4,5-b]pyridine-5-carboxylic acid], on GLP-1R, the EC50 is 1.24 nM. Besides, the “Predicted Hepatic Clearance (Pred. Cl.)” value in data set [1] was less than 1.83 mL/min/kg.

Turning to `COCCn1c(Cc2ccc(-c3cccc(OCc4ccc(C#N)cc4F)n3)cc2C#CCCO)nc2ccc(C(=O)O)cc21` [Example 255, 2-(4-(6-((4-cyano-2-fluorobenzyl)oxy)pyridin-2-yl)-2-(4-hydroxybut-1-yn-1-yl)benzyl)-1-(2-methoxyethyl)-1H-benzo[d]imidazole-6-carboxylic acid], at GLP-1R, the concentration for a half-maximal effect (EC50) was determined as 3.31 nM. Besides, in data set [1], the “Predicted Hepatic Clearance (Pred. Cl.)” value is 8.17 mL/min/kg.

Take `COCCn1c(Cc2ccc(-c3cccc(OCc4ccc(Cl)cc4F)n3)cc2F)nc2ccc(C(=O)O)cc21` [Example 478, 2-(4-(6-((4-chloro-2-fluorobenzyl)oxy)pyridin-2-yl)-2-fluorobenzyl)-1-(2-methoxyethyl)-1H-benzo[d]imidazole-6-carboxylic acid]: the EC50 on GLP-1R was 9.19 nM. Besides, the “Predicted Hepatic Clearance (Pred. Cl.)” value in data set [1] was 3.17 mL/min/kg.

For `N#Cc1ccc(COc2cccc(-c3cc(F)c(Cc4nc5ccc(C(=O)O)cc5n4CC45COCC4C5(F)F)cc3F)n2)c(F)c1` (stereo not drawn) [Example 703], on GLP-1R, the EC50 was determined as 1.01 nM. Also, the “Predicted Hepatic Clearance (Pred. Cl.)” value in data set [1] is 5.67 mL/min/kg.

As to `COCCn1c(Cc2ccc(-c3cc(F)cc(OCc4ccc(C#N)cc4OC)n3)cc2F)nc2ccc(C(=O)O)cc21` [Example 77, 2-(4-(6-((4-cyano-2-methoxybenzyl)oxy)-4-fluoropyridin-2-yl)-2-fluorobenzyl)-1-(2-methoxyethyl)-1H-benzo[d]imidazole-6-carboxylic], on GLP-1R, the 50% effective concentration (EC50) turned out to be 0.19 nM. The “Predicted Hepatic Clearance (Pred. Cl.)” value in data set [1] was 9.17 mL/min/kg.

On to `O=C(O)c1ccc2nc(Cc3cc(F)c(-c4cccc(OCc5ccc(C(F)F)cc5F)n4)cc3F)n(C[C@@H]3CCO3)c2c1` [Example 800], for which the EC50 on GLP-1R amounted to 0.1 nM. Also, in data set [1], the “Predicted Hepatic Clearance (Pred. Cl.)” value is 1.83 mL/min/kg.

As to `COCCn1c(Cc2ccc(-c3cccc(OCc4ccc(C#N)cc4F)n3)cc2F)nc2c(OC)cc(C(=O)O)cc21` [Example 345, 2-(4-(6-((4-cyano-2-fluorobenzyl)oxy)pyridin-2-yl)-2-fluorobenzyl)-4-methoxy-1-(2-methoxyethyl)-1H-benzo[d]imidazole-6-carboxylic], the EC50 on GLP-1R came to 175 nM. Besides, the “Predicted Hepatic Clearance (Pred. Cl.)” value in data set [1] was 3.83 mL/min/kg.

Turning to `N#Cc1ccc(COc2nccc(-c3ccc(Cc4nc5c(F)cc(C(=O)O)cc5n4CC4(CF)CC4)c(F)c3)n2)c(F)c1` [Example 360, 2-(4-(2-((4-cyano-2-fluorobenzyl)oxy)pyrimidin-4-yl)-2-fluorobenzyl)-4-fluoro-1-((1-(fluoromethyl)cyclopropyl)methyl)-1H-benzo[d]imidazole-6-carboxylic acid], the EC50 at GLP-1R amounted to 0.94 nM. The “Predicted Hepatic Clearance (Pred. Cl.)” value in data set [1] was less than 1.83 mL/min/kg.

`O=C(O)c1ccc2nc(Cc3cc(F)c(-c4cccc(OCc5ccc(C(F)F)cc5F)n4)cc3F)n(CC3(CF)CC3)c2c1` [Example 719]: the EC50 at GLP-1R came out at 0.37 nM. Moreover, the “Predicted Hepatic Clearance (Pred. Cl.)” value in data set [1] was 1.83 mL/min/kg.

On to `N#Cc1ccc(COc2cccc(-c3cc(F)c(Cc4nc5ccc(C(=O)O)cc5n4CCOCC(F)(F)F)cc3F)n2)c(F)c1` [Example 827], for which, at GLP-1R, the EC50 stood at 1.97 nM. Moreover, the “Predicted Hepatic Clearance (Pred. Cl.)” value in data set [1] is 7.17 mL/min/kg.
